# Assay results published in patent publication US10189819B2, “Factor IXa inhibitors” (MERCK SHARP & DOHME CORP., priority 2014, dated 2019).
# Target: Factor IXa (Homo sapiens (Human), UniProt P00740)
# Assay: Determination of inhibitory activity against Factor IXa (cleavage of fluorescent peptide CH3SO2-D-CHG-Gly-Arg-AFC)
# Assay type: biochemical
# Conditions: read-out: FIXa IC50
# Method: Determination of Inhibitory Activity Against Factor IXa
# Formation of a clot to stem bleeding at a site of blood vessel injury involves the coordinated activity of a group of plasma proteins that initiate and propagate fibrin formation and subsequently protect fibrin from premature degradation. Factor IX is a key component of the plasma system that forms a fibrin clot at a site of vascular injury. The activity of Factor IXa is measured by monitoring the cleavage of the fluorescent peptide, CH3SO2-D-CHG-Gly-Arg-AFC.AcOH (“CHG” is cyclohexyl-glycine and “AFC” is trifluoro aminomethyl coumarin). Factor IXa cleaves the amide bond between Arg and AFC, thereby releasing the AFC fluorophore. The free AFC can be detected with a fluorescence detector at an excitation wavelength of 405 nm and emission wavelength of 510 nm.
# Chain of Factor IXa (P00740 227-461): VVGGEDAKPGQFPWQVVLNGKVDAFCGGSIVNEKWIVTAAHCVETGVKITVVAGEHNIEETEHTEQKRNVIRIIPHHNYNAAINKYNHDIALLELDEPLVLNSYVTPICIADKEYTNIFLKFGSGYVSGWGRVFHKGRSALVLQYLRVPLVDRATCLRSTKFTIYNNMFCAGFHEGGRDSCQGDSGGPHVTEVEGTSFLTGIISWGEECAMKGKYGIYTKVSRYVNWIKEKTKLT
# Chain of Factor IXa (P00740 47-191 partner): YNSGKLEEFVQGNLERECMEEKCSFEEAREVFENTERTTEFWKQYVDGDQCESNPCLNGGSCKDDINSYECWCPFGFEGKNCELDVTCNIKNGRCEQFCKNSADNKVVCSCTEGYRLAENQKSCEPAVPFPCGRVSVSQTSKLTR
row,Structure (SMILES),IC50
1,"Cc1cc2nc([C@@H](CNC(=O)c3c(Cl)cc(-n4cnnc4)cc3Cl)c3cncc(F)c3)[nH]c2cc1C [Example 38, (R)-2,6-Dichloro-N-(2-(5,6-dimethyl-1H-benzo[d]imidazol-2-yl)-2-(5-fluoropyridin-3-yl)ethyl)-4-(4H-1,2,4-triazol-4-yl)benzamide]",14.8 nM
2,"O=C(NC[C@@H](c1ccc(F)cc1)c1nc2ccc(Cl)cc2o1)c1c(Cl)cc(-n2cnnc2)cc1Cl [Example 43, (R)-2,6-Dichloro-N-(2-(6-chlorobenzo[d]oxazol-2-yl)-2-(4-fluorophenyl)ethyl)-4-(4H-1,2,4-triazol-4-yl)benzamide]",96.2 nM
3,Cc1cc2nc([C@@](C)(CNC(=O)c3c(Cl)cc(-n4cnnc4)cc3Cl)c3ccc(F)cc3)[nH]c2cc1C [Example 70],5.6 nM
4,"Cc1cc2cc([C@@H](CNC(=O)c3c(Cl)cc(-n4cnnc4)cc3Cl)c3ccccc3)[nH]c2cc1C [Example 74, (R)-2,6-dichloro-N-(2-(5,6-dimethyl-1H-indol-2-yl)-2-phenylethyl)-4-(4H-1,2,4-triazol-4-yl)benzamide]",29.1 nM
5,"Cc1ccc2nn([C@@H](CNC(=O)c3ccc(-n4cnnc4)cc3Cl)c3ccccc3)cc2c1 [Example 84, (R)-2-chloro-N-(2-(5-methyl-2H-indazol-2-yl)-2-phenylethyl)-4-(4H-1,2,4-triazol-4-yl)benzamide]",240 nM
6,"Cc1ccc2c(cnn2[C@H](CNC(=O)c2ccc(-n3cnnc3)cc2Cl)c2ccccc2)c1 [Example 85, (S)-2-chloro-N-(2-(5-methyl-1H-indazol-1-yl)-2-phenylethyl)-4-(4H-1,2,4-triazol-4-yl)benzamide]",38 nM
7,"Cc1ccc2c(cnn2[C@H](CNC(=O)c2c(Cl)cc(-n3cc(CCO)nn3)cc2Cl)c2cnco2)c1 [Example 86, (R)-2,6-dichloro-4-(4-(2-hydroxyethyl)-1H-1,2,3-triazol-1-yl)-N-(2-(5-methyl-1H-indazol-1-yl)-2-(oxazol-5-yl)ethyl)benzamide]",7 nM
8,"Cc1ccc2c([C@H](CNC(=O)c3ccc(-n4cnnc4)cc3Cl)c3ccccc3)n[nH]c2c1 [Example 88, (S)-2-chloro-N-(2-(6-methyl-1H-indazol-3-yl)-2-phenylethyl)-4-(4H-1,2,4-triazol-4-yl)benzamide]",68.8 nM
9,"Cc1ccc2nn([C@@H](CNC(=O)c3c(Cl)cc(-n4cnnc4)cc3Cl)c3ccccc3)nc2c1 [Example 89, (R)-2,6-dichloro-N-(2-(5-methyl-2H-benzo[d][1,2,3]triazol-2-yl)-2-phenylethyl)-4-(4H-1,2,4-triazol-4-yl)benzamide]",20.9 nM
10,"Cc1ccc2c(c1)nnn2[C@H](CNC(=O)c1c(Cl)cc(-n2cnnc2)cc1Cl)c1ccccc1 [Example 90, (S)-2,6-dichloro-N-(2-(5-methyl-1H-benzo[d][1,2,3]triazol-1-yl)-2-phenylethyl)-4-(4H-1,2,4-triazol-4-yl)benzamide]",38 nM

# Continued, values first:
row,IC50,Structure (SMILES)
1,18.6 nM,"Cc1ncn(-c2cc(Cl)c(C(=O)NC[C@@H](c3ccc(C(=O)O)cc3)c3nc4c(C)cc(Cl)cc4[nH]3)c(Cl)c2)n1 [Example 41, (R)-4-(1-(6-Chloro-4-methyl-1H-benzo[d]imidazol-2-yl)-2-(2,6-dichloro-4-(3-methyl-1H-1,2,4-triazol-1-yl)benzamido)ethyl)benzoic acid]"
2,39.1 nM,"CCOC(=O)c1ccc([C@H](CNC(=O)c2c(Cl)cc(-n3cnc(C)n3)cc2Cl)c2nc3c(C)cc(Cl)cc3[nH]2)cc1 [Example 42, (R)-Ethyl 4-(1-(6-chloro-4-methyl-1H-benzo[d]imidazol-2-yl)-2-(2,6-dichloro-4-(3-methyl-1H-1,2,4-triazol-1-yl)benzamido)ethyl)benzoate]"
3,9.1 nM,"Cc1ncn(-c2cc(Cl)c(C(=O)NC[C@@H](c3cccc(F)c3)c3ccc4[nH]c(C)nc4c3)c(Cl)c2)n1 [Example 75, (R)-2,6-dichloro-N-(2-(3-fluorophenyl)-2-(2-methyl-1H-benzo[d]imidazol-5-yl)ethyl)-4-(3-methyl-1H-1,2,4-triazol-1-yl)benzamide]"
4,80.6 nM,"Cc1ncn(-c2cc(Cl)c(C(=O)NC[C@@H](c3cccc(F)c3)c3cnc4[nH]c(C)nc4c3)c(Cl)c2)n1 [Example 76, (S)-2,6-dichloro-N-(2-(3-fluorophenyl)-2-(2-methyl-3H-imidazo[4,5-b]pyridin-6-yl)ethyl)-4-(3-methyl-1H-1,2,4-triazol-1-yl)benzamide]"
5,59.5 nM,"Cc1ncn(-c2cc(Cl)c(C(=O)NC[C@@H](c3cccc(F)c3)c3ccc4sc(C)nc4c3)c(Cl)c2)n1 [Example 83, (R)-2,6-dichloro-N-(2-(3-fluorophenyl)-2-(2-methylbenzo[d]thiazol-5-yl)ethyl)-4-(3-methyl-1H-1,2,4-triazol-1-yl)benzamide]"

# Same assay, conditions: read-out: hFIXa IC50
row,Structure (SMILES),IC50
1,Cc1ccc2nc(C(CNC(=O)c3ccc(-n4cnnc4)cc3Cl)c3ccccc3)[nH]c2c1 (stereo not drawn) [Example 44],53.5 nM
2,Cc1cccc2[nH]c(C(CNC(=O)c3ccc(-n4cnnc4)cc3Cl)c3ccccc3)nc12 (stereo not drawn) [Example 45],622 nM
3,Cc1cc2nc(C(CNC(=O)c3ccc(-n4cnnc4)cc3Cl)c3cccc(F)c3)[nH]c2cc1C (stereo not drawn) [Example 50],5.69 nM
4,Cc1cc2nc(C(CNC(=O)c3ccc(-n4cnnc4)cc3Cl)c3ccccc3F)[nH]c2cc1C (stereo not drawn) [Example 51],19.3 nM
5,Cc1cc2nc(C(CNC(=O)c3ccc(-n4cnnc4)cc3Cl)c3ccc(F)cc3)[nH]c2cc1C (stereo not drawn) [Example 52],8.42 nM
6,Cc1cc2nc(C(CNC(=O)c3c(Cl)cc(-n4cnnc4)cc3Cl)c3ccc(F)cc3)[nH]c2cc1C (stereo not drawn) [Example 53],2.82 nM
7,Cc1ncn(-c2ccc(C(=O)NCC(c3ccc(C(F)(F)F)nc3)c3nc4cc(C)c(C)cc4[nH]3)c(Cl)c2)n1 (stereo not drawn) [Example 55],427 nM
8,Cc1cc2nc(C(CNC(=O)c3ccc(-n4cnnc4)cc3Cl)c3cccnc3)[nH]c2cc1C (stereo not drawn) [Example 56],15.3 nM
9,Cc1cc2nc(C(CNC(=O)c3ccc(-n4cnnc4)cc3Cl)c3cccc(F)c3)oc2cc1C (stereo not drawn) [Example 68],71.9 nM
10,Cc1ccc2c([C@H](CNC(=O)c3ccc(-n4cnnc4)cc3Cl)c3cccc(F)c3)c[nH]c2c1 [Example 87],31.1 nM

# The remaining lines, values ahead:
row,IC50,Structure (SMILES)
1,9.78 nM,Cc1ncn(-c2cc(Cl)c(C(=O)NC[C@@H](c3cccc(F)c3)c3nc4ccc(Cl)cc4[nH]3)c(Cl)c2)n1 [Example 46]
2,6.18 nM,Cc1ncn(-c2cc(Cl)c(C(=O)NCC(c3cccc(F)c3)c3nc4c(C)cc(Cl)cc4[nH]3)c(Cl)c2)n1 (stereo not drawn) [Example 47]
3,2.86 nM,COc1cc2nc(C(CNC(=O)c3c(Cl)cc(-n4cnc(C)n4)cc3Cl)c3cccc(F)c3)[nH]c2cc1Cl (stereo not drawn) [Example 48]
4,49.1 nM,COc1ccc2nc(C(CNC(=O)c3c(Cl)cc(-n4cnc(C)n4)cc3Cl)c3cccc(F)c3)[nH]c2c1 (stereo not drawn) [Example 49]
5,8.76 nM,COc1cc2nc([C@@H](CNC(=O)c3c(Cl)cc(-n4cnc(C)n4)cc3Cl)c3cnc(N(C)C)nc3)[nH]c2cc1Cl [Example 57]
6,2.36 nM,COc1cc2nc([C@@H](CNC(=O)c3c(Cl)cc(-n4cnc(C)n4)cc3Cl)c3ccc(C(N)=O)cc3)[nH]c2cc1Cl [Example 58]
7,1.5 nM,COc1cc2nc(C(CNC(=O)c3c(Cl)cc(-n4cnc(C)n4)cc3Cl)c3cccc(C(=O)O)c3)[nH]c2cc1Cl (stereo not drawn) [Example 59]
8,4.79 nM,COc1cc2nc([C@@H](CNC(=O)c3c(Cl)cc(-n4cnc(C)n4)cc3Cl)c3ccc(C(=O)O)cc3)[nH]c2cc1Cl [Example 60]
9,4.78 nM,CNC(=O)c1cccc([C@H](CNC(=O)c2c(Cl)cc(-n3cnc(C)n3)cc2Cl)c2nc3cc(OC)c(Cl)cc3[nH]2)c1 [Example 61]
10,1.75 nM,COc1cc2nc(C(CNC(=O)c3c(Cl)cc(-n4cnc(C)n4)cc3Cl)c3cccc(CC(=O)O)c3)[nH]c2cc1Cl (stereo not drawn) [Example 62]
11,27.7 nM,COc1cc2nc([C@@H](CNC(=O)c3c(Cl)cc(-n4cnc(C)n4)cc3Cl)c3ccc(C(=O)N(C)C)cc3)[nH]c2cc1Cl [Example 63]
12,6.1 nM,COC(=O)Cc1cccc(C(CNC(=O)c2c(Cl)cc(-n3cnc(C)n3)cc2Cl)c2nc3cc(OC)c(Cl)cc3[nH]2)c1 (stereo not drawn) [Example 64]
13,5.6 nM,CCOC(=O)c1ccc([C@H](CNC(=O)c2c(Cl)cc(-n3cnc(C)n3)cc2Cl)c2nc3cc(OC)c(Cl)cc3[nH]2)cc1 [Example 65]
14,16.8 nM,CCOC(=O)c1cccc([C@H](CNC(=O)c2c(Cl)cc(-n3cnc(C)n3)cc2Cl)c2nc3cc(OC)c(Cl)cc3[nH]2)c1 [Example 66]
15,2.9 nM,COc1cc2nc([C@@H](CNC(=O)c3c(Cl)cc(-n4cnc(C)n4)cc3Cl)c3cccc(C(=O)NC4CC4)c3)[nH]c2cc1Cl [Example 67]
16,67.2 nM,COc1cc2nc([C@@H](CNC(=O)c3c(Cl)cc(-n4cnc(C)n4)cc3Cl)n3cc(CN(C)C)nn3)[nH]c2cc1Cl [Example 72]
17,34.4 nM,COc1cc2nc(C(CNC(=O)c3c(Cl)cc(-n4cnc(C)n4)cc3Cl)n3cc(C(C)(C)O)nn3)[nH]c2cc1Cl (stereo not drawn) [Example 73]
18,3.7 nM,Cc1ncn(-c2cc(Cl)c(C(=O)NC[C@@H](c3cccc(F)c3)c3cnc4[nH]c(C)cc4c3)c(Cl)c2)n1 [Example 77]
19,1.93 nM,Cc1ncn(-c2cc(Cl)c(C(=O)NC[C@@H](c3cccc(F)c3)c3ccc4[nH]c(C)nc4c3F)c(Cl)c2)n1 [Example 78]
20,6.42 nM,Cc1ncn(-c2cc(Cl)c(C(=O)NC[C@@H](c3cccc(F)c3)c3cc(F)c4[nH]c(C)nc4c3)c(Cl)c2)n1 [Example 79]
21,16.9 nM,Cc1ncn(-c2cc(Cl)c(C(=O)NC[C@@H](c3cccc(F)c3)c3ccc4[nH]c(C)nc4n3)c(Cl)c2)n1 [Example 80]
22,126 nM,Cc1ncn(-c2cc(Cl)c(C(=O)NCC(c3cccc(F)c3)c3cc4nc(C)[nH]c4cn3)c(Cl)c2)n1 (stereo not drawn) [Example 81]
23,75.2 nM,Cc1ncn(-c2cc(Cl)c(C(=O)NC[C@@H](c3cccc(F)c3)c3cc(C)c4[nH]c(C)nc4c3)c(Cl)c2)n1 [Example 82]
